Measured values reported in ChEMBL document CHEMBL1201862, “PubChem BioAssay data set” (2004).
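Dose response: 5 concentrations. Exposure: 48 h. Format: 96-well plates. Endpoint: linear interpolation; highest concentration if not reached. Abbreviation: GI50, concentration required for 50% inhibition of growth.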 The source made the active and inactive calls. Rule as the data show it: active = GI50 up to about 1.1 µM and inactive = higher.

What was measured:
Assay in all cases: NCI-60 cell line screen, 48 h
A549 = test system: A549
BT-549 = test system: BT-549
CAKI-1 = test system: CAKI-1
HCC 2998 = test system: HCC 2998
HCT-116 = test system: HCT-116
HL-60 = test system: HL-60
HT-29 = test system: HT-29
Hs-578T = test system: Hs-578T
IGROV-1 = test system: IGROV-1
KM12 = test system: KM12
MOLT-4 = test system: MOLT-4
Malme-3M = test system: Malme-3M
NCI-H460 = test system: NCI-H460
NCI-H522 = test system: NCI-H522
OVCAR-3 = test system: OVCAR-3
OVCAR-4 = test system: OVCAR-4
SK-MEL-2 = test system: SK-MEL-2
SK-MEL-5 = test system: SK-MEL-5
UO-31 = test system: UO-31
XF498 = test system: XF498

Compound | GI50 (A549) | GI50 (BT-549) | GI50 (CAKI-1) | GI50 (HCC 2998) | GI50 (HCT-116) | GI50 (HL-60) | GI50 (HT-29) | GI50 (Hs-578T) | GI50 (IGROV-1) | GI50 (KM12) | GI50 (MOLT-4) | GI50 (Malme-3M) | GI50 (NCI-H460) | GI50 (NCI-H522) | GI50 (OVCAR-3) | GI50 (OVCAR-4) | GI50 (SK-MEL-2) | GI50 (SK-MEL-5) | GI50 (UO-31) | GI50 (XF498)
COc1ccccc1NC(=O)CC(=O)n1nc(C)c(/N=N/c2ccccc2Cl)c1C | > 100 µM (inactive) | > 81.7 µM (inactive) | > 100 µM (inactive) | > 100 µM (inactive) | > 100 µM (inactive) | > 95.5 µM (inactive) | > 100 µM (inactive) | > 100 µM (inactive) | > 100 µM (inactive) | > 100 µM (inactive) | 80.2 µM (inactive) | > 100 µM (inactive) | > 100 µM (inactive) | > 100 µM (inactive) | > 100 µM (inactive) | > 100 µM (inactive) | > 100 µM (inactive) | > 100 µM (inactive) | > 100 µM (inactive) | > 100 µM (inactive)
CCCCCCCCCCCCCCCCCCN(C)C(COC)COP(=O)([O-])OCC[N+](C)(C)C (centres undefined) | 6.68 µM (inactive) | 9.18 µM (inactive) | 3.69 µM (inactive) | 1.66 µM (inactive) | 4.68 µM (inactive) | 1.48 µM (inactive) | 2.94 µM (inactive) | 3.19 µM (inactive) | 1.3 µM (inactive) | 1.66 µM (inactive) | 1.82 µM (inactive) | 14.9 µM (inactive) | 1.78 µM (inactive) | 2.69 µM (inactive) | 7.24 µM (inactive) | 3.69 µM (inactive) | 18.7 µM (inactive) | 12.9 µM (inactive) | 16 µM (inactive) | 18.6 µM (inactive)
CC(/C=C/C=C\C=C\C=C(/C)C(=O)NC(C)CO)=C\C(C)C(O)/C(C)=C/C(C)CCc1ccccc1 (centres undefined) | 4.05 µM (inactive) | 15.2 µM (inactive) | 14.2 µM (inactive) | 7.59 µM (inactive) | 0.127 µM (active) | 5.02 µM (inactive) | 11.6 µM (inactive) | 19.3 µM (inactive) | 11.1 µM (inactive) | 2.32 µM (inactive) | 7.46 µM (inactive) | 6.64 µM (inactive) | 3.85 µM (inactive) | 2.77 µM (inactive) | 1.4 µM (inactive) | 12.4 µM (inactive) | 13.2 µM (inactive) | 0.198 µM (active) | 5.11 µM (inactive) | 7.71 µM (inactive)
Cc1cccc(C)c1NC(=O)/C(=N/NC(N)=S)C(C)C(=O)c1ccc(Cl)cc1 (centres undefined) | > 100 µM (inactive) | – | > 100 µM (inactive) | > 100 µM (inactive) | > 100 µM (inactive) | 93.8 µM (inactive) | 75.9 µM (inactive) | – | > 100 µM (inactive) | > 100 µM (inactive) | > 100 µM (inactive) | > 100 µM (inactive) | > 100 µM (inactive) | 89.9 µM (inactive) | > 100 µM (inactive) | 78.5 µM (inactive) | > 100 µM (inactive) | > 100 µM (inactive) | > 100 µM (inactive) | > 100 µM (inactive)
COC(=O)C(CCS(=O)(=O)CC(=O)C(=O)Nc1cccc(C(C)=O)c1)C(=O)OC | > 100 µM (inactive) | – | > 100 µM (inactive) | > 100 µM (inactive) | > 56.6 µM (inactive) | > 100 µM (inactive) | > 100 µM (inactive) | – | > 100 µM (inactive) | > 100 µM (inactive) | > 100 µM (inactive) | > 100 µM (inactive) | > 53 µM (inactive) | > 92.3 µM (inactive) | > 100 µM (inactive) | > 100 µM (inactive) | > 100 µM (inactive) | > 100 µM (inactive) | > 100 µM (inactive) | > 100 µM (inactive)
N/N=C1\C(=O)N(C2CCCCC2)C(=O)C1C(=O)NC1CCCCC1 (centres undefined) | > 100 µM (inactive) | – | > 100 µM (inactive) | > 100 µM (inactive) | > 100 µM (inactive) | 26.2 µM (inactive) | > 100 µM (inactive) | – | > 100 µM (inactive) | > 100 µM (inactive) | > 100 µM (inactive) | > 100 µM (inactive) | > 100 µM (inactive) | > 100 µM (inactive) | 21 µM (inactive) | > 100 µM (inactive) | 28.9 µM (inactive) | 33.7 µM (inactive) | > 100 µM (inactive) | > 100 µM (inactive)
O=C1C(Cl)C(c2ccccc2)N1n1cnc2ccccc2c1=O (centres undefined) | > 100 µM (inactive) | – | 37.8 µM (inactive) | > 100 µM (inactive) | > 100 µM (inactive) | > 100 µM (inactive) | > 100 µM (inactive) | – | > 100 µM (inactive) | > 100 µM (inactive) | > 100 µM (inactive) | > 100 µM (inactive) | > 100 µM (inactive) | 55.3 µM (inactive) | > 100 µM (inactive) | > 100 µM (inactive) | > 100 µM (inactive) | > 100 µM (inactive) | 23.6 µM (inactive) | > 100 µM (inactive)
NC1=NN(c2ccccc2)C(=O)C1/C(=N\NC(=O)c1cc2ccccc2cc1O)C(=O)Nc1nc([N+](=O)[O-])cs1 (centres undefined) | 32.7 µM (inactive) | – | > 25.6 µM (inactive) | 40.2 µM (inactive) | 32.1 µM (inactive) | 8.81 µM (inactive) | 32.7 µM (inactive) | – | 19.1 µM (inactive) | 30.3 µM (inactive) | 3.6 µM (inactive) | > 65 µM (inactive) | 18.1 µM (inactive) | 19.1 µM (inactive) | 30.1 µM (inactive) | 33.7 µM (inactive) | > 49.8 µM (inactive) | 20.3 µM (inactive) | 9.42 µM (inactive) | 36.6 µM (inactive)
CC(C)N(C(=O)C12C3C4C5C3C1(C(=O)N(C(C)C)C(C)C)C5C42)C(C)C (centres undefined) | > 58.9 µM (inactive) | – | > 100 µM (inactive) | > 100 µM (inactive) | > 43.6 µM (inactive) | > 37.6 µM (inactive) | > 100 µM (inactive) | – | > 100 µM (inactive) | > 100 µM (inactive) | 68.9 µM (inactive) | > 100 µM (inactive) | > 56.8 µM (inactive) | > 100 µM (inactive) | > 100 µM (inactive) | > 100 µM (inactive) | > 100 µM (inactive) | > 100 µM (inactive) | > 100 µM (inactive) | > 100 µM (inactive)
C=CCN1COc2c(cc3c4c(cccc24)C(=O)O3)C1 | > 100 µM (inactive) | – | 27.5 µM (inactive) | > 100 µM (inactive) | 20.1 µM (inactive) | 21.4 µM (inactive) | 23.8 µM (inactive) | – | > 100 µM (inactive) | 75.3 µM (inactive) | 27 µM (inactive) | > 10 µM (inactive) | 43.6 µM (inactive) | 14.1 µM (inactive) | 25.2 µM (inactive) | 68.1 µM (inactive) | > 100 µM (inactive) | 44.1 µM (inactive) | 23.1 µM (inactive) | 20.2 µM (inactive)
CCOc1ccc(NC(=O)CC#N)cc1 | > 100 µM (inactive) | – | > 100 µM (inactive) | 6.79 µM (inactive) | > 100 µM (inactive) | > 100 µM (inactive) | > 100 µM (inactive) | – | > 100 µM (inactive) | > 100 µM (inactive) | > 100 µM (inactive) | > 100 µM (inactive) | > 100 µM (inactive) | > 100 µM (inactive) | > 100 µM (inactive) | > 100 µM (inactive) | > 100 µM (inactive) | > 100 µM (inactive) | > 100 µM (inactive) | > 100 µM (inactive)
